# Reference: patent publication US20240336660A1 (priority 2021, published 2024)
# *: point of attachment. Decanoyl = CCCCCCCCCC(=O)*; CH2Cl = ClC*
# Experiments:
# Htet1/SD614G cells = assay type: cell-based, human; settings: for effect on trafficking of Spike to lysosomes: 20 hours, 50 μM dynasore, 20 μM pitstop2, 1 μM nocodazole, 43 nM bafilomycin
# [1] = test system: doxycycline-induced Htet1/SW1 cells; assay type: cell-based, human
Compound,effect on trafficking of Spike to lysosomes (Htet1/SD614G cells),also measured
O=C(N/N=C/c1ccc(O)c(O)c1)c1cc2ccccc2cc1O [dynasore],Neither had a noticeable impact on the trafficking of Spike to lysosomes,–
COC(=O)Nc1nc2ccc(C(=O)c3cccs3)cc2[nH]1 [nocodazole],had no effect,–
O=C1NC(=NS(=O)(=O)c2cccc3ccccc23)S/C1=C\c1ccc(Br)cc1 [pitstop2],Neither had a noticeable impact on the trafficking of Spike to lysosomes,–
Decanoyl-RVKR-CH2Cl,–,effect on Spike cell surface expression and furin-mediated processing [1]: reduced Spike's cell surface expression and furin-mediated processing
bafilomycin,"redirected Spike into the Golgi and plasma membranes, preventing its accumulation in lysosomes",–
vacuolin-1,–,Spike localization after vacuolin-1 treatment (Htet1/SD614G cells; vacuolin-1 10 μg/ml for three hours): Spike localization to lysosome membranes was also apparent
